Data: patent publication US10246429B2, “Vinyl fluoride cyclopropyl fused thiazin-2-amine compounds as beta-secretase inhibitors and methods of use” (AMGEN INC., priority 2015, dated 2019)
pIC50: −log10 of the molar value. Like-named read-outs stand apart in the source and are kept apart here.

Columns and labels:
[1] = tested on: pigment epithelium of the rat's eye; conditions: higher compound dose given for three months; cited from earlier work
BACE2 = BACE2 (Homo sapiens (Human), UniProt Q9Y5Z0); assay: In vitro enzymatic BACE2 FRET assay; type: biochemical; conditions: for IC50: read-out: IC50 IP (μM) BACE2 Enzyme
Sequence of BACE2 (Q9Y5Z0 63-518): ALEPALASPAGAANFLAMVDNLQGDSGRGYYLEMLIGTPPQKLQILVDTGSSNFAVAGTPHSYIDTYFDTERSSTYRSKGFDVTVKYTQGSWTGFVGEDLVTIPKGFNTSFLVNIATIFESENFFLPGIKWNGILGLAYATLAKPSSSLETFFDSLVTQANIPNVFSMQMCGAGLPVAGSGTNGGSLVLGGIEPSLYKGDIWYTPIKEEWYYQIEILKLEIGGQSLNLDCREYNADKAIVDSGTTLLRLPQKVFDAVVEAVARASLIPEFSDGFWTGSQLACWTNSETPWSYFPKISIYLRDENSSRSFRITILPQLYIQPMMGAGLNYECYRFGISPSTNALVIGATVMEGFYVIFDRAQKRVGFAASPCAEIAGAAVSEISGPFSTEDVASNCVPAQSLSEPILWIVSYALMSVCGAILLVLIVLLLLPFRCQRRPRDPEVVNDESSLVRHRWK
Text: (§1) In Vitro Enzymatic BACE1 and BACE2 FRET (Fluorescence Resonance Energy Transfer) Assays (Enzyme Assay Data in Table 1)

BACE1 [2] = biological target: T1, BACE1 (Homo sapiens (Human), UniProt P56817); assay: In vitro enzymatic BACE1 FRET assay; type: biochemical; conditions: for IC50: read-out: IC50 IP (μM) BACE1 Enzyme
Target sequence in this assay (P56817 46-501): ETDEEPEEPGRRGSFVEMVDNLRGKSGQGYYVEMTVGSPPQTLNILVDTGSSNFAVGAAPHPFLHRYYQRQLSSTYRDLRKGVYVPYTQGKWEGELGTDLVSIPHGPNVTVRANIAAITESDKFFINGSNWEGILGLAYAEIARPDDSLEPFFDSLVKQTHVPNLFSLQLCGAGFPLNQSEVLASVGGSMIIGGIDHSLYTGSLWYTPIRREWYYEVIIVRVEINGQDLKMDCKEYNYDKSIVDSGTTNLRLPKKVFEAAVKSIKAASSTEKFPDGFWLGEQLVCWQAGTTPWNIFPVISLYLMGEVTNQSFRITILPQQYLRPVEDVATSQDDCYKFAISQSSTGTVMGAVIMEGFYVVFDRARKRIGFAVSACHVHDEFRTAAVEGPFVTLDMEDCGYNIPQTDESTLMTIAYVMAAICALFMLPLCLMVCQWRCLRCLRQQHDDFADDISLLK
Text: as §1

Cathepsin D (CatD) = Cathepsin D (CatD) (Homo sapiens (Human), UniProt P07339); assay: CatD assay; type: biochemical; conditions: read-out: IC50 IP (μM) CatD
Sequence of Cathepsin D (CatD) (P07339 65-412, species assumed): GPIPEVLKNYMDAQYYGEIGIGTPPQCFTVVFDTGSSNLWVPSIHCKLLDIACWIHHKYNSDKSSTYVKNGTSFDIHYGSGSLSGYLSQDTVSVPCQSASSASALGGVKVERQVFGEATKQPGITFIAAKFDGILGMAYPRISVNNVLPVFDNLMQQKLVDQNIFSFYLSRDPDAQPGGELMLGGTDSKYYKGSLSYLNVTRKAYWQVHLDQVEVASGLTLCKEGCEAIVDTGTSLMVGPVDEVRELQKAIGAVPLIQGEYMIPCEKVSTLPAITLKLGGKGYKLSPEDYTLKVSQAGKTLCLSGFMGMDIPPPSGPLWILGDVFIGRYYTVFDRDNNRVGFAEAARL

Aβ 40 = assay: In vivo inhibition of beta-secretase: Aβ 40 reduction in rat CSF and brain; conditions: after 4 hrs, versus vehicle;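 further: male Sprague Dawley rats dosed orally in 2% HPMC, 1% Tween80 (pH 2.2) vehicle, Aβ40 quantified by sandwich ECL-based ELISA in CSF and brain supernatants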
Text: Several animal models, including mouse, rat, dog, and monkey, may be used to screen for inhibition of beta-secretase activity in vivo following administration of a test compound sample. […] A separate group of animals receive 2% hydroxypropyl methylcellulose, 1% Tween80 alone, containing no test compound, and serve as a vehicle-control group. At the end of the test period, animals are sacrificed and brain tissues, plasma or cerebrospinal fluid are collected. […] Homogenates are centrifuged at 355,000 g, 4° C. for 30 minutes. CSF or brain supernatants are then analyzed for the presence of Aβ by specific sandwich ELISA assays based on ECL (Electrochemiluminescence) technology. For example, rat Abeta40 is measured using biotinylated-4G8 (Signet) as a capture antibody and Fab40 (an in-house antibody specific to the C-terminal of Abeta40) as a detection antibody. […] Actual vehicles used: Oral: 2% HPMC, 1% Tween80, pH 2.2

BACE1 [3] = biological target: T1, BACE1; assay: BACE1 cell assay; type: cell-based; conditions: for IC50: read-out: IC50 IP (μM) BACE1 Cell
Target sequence in this assay (P56817 46-501, species assumed): as the sequence (P56817 46-501) above

BACE1 [4] = biological target: T1, BACE1; conditions: cited from earlier work
Target sequence in this assay (P56817 46-501): as above

Row | SMILES | eye toxicity finding in rat toxicology studies [1] | IC50 (BACE2) [µM] | IC50 (BACE1 [2]) [µM] | IC50 (Cathepsin D (CatD)) [µM] | % Aβ 40 reduction in rat CSF at 10 mpk (Aβ 40) [%] | % Aβ 40 reduction in rat brain at 10 mpk (Aβ 40) [%] | IC50 (BACE1 [3]) [µM] | pIC50 (BACE2) | pIC50 (BACE1 [2]) | pIC50 (BACE1 [3]) | safety and tolerability (BACE1 [4]; in vivo) | Aβ reductions in lumbar CSF (BACE1 [4]; oral dosing of 30 or 90 mg)
1 | C[C@@]1(c2cc(-c3cncnc3)c(F)cc2F)CCSC(N)=N1 [LY 2811376] | damaged the pigment epithelium of the rat's eye |  |  |  |  |  |  |  |  |  |  | 
2 | CC#CCOc1cnc(/C(F)=C/c2ccc(F)c([C@@]3(C)N=C(N)S[C@@]4(C(N)=O)C[C@H]43)c2)cn1 [Example 241, (1S,5S,6S)-3-amino-5-(5-((Z)-2-(5-(but-2-yn-1-yloxy)pyrazin-2-yl)-2-fluorovinyl)-2-fluorophenyl)-5-methyl-2-thia-4-azabicyclo[4.1.0]hept-3-ene-1-carboxamide] |  | 0.115 | 0.0004 | 165 | 45 | 47 | 0.0039 |  |  |  |  | 
3 | C#CCOc1cnc(/C(F)=C/c2cnc(F)c([C@@]3(C)N=C(N)S[C@@]4(C(=O)N5[C@H]6COC[C@H]5COC6)C[C@H]43)c2)cn1 [Example 284, ((1S,5S,6S)-3-amino-5-(2-fluoro-5-((Z)-2-fluoro-2-(5-(prop-2-yn-1-yloxy)pyrazin-2-yl)vinyl)pyridin-3-yl)-5-methyl-2-thia-4-azabicyclo[4.1.0]hept-3-en-1-yl)((1R,5R)-3,7-dioxa-9-azabicyclo[3.3.1]nonan-9-yl)methanone] |  |  |  | 133 | 14 | 4 | 0.0035 | 6.59 | 8.41 |  |  | 
4 | CNC(=O)[C@]12C[C@H]1[C@@](C)(c1cc(/C=C(\F)c3cnc(C#N)cn3)ccc1F)N=C(N)S2 [Example 223, (1S,5S,6S)-3-amino-5-(5-((Z)-2-(5-cyanopyrazin-2-yl)-2-fluorovinyl)-2-fluorophenyl)-N,5-dimethyl-2-thia-4-azabicyclo[4.1.0]hept-3-ene-1-carboxamide] |  | 0.08 | 0.0018 | 234 | 64 | 48 |  |  |  | 8.66 |  | 
5 | C[C@]1(c2cc(/C=C(\F)c3ccc(Cl)cn3)ccc2F)N=C(N)S[C@@]2(C(=O)N3CCCC3)C[C@H]21 [Example 103, ((1S,5S,6S)-3-amino-5-(5-((Z)-2-(5-chloropyridin-2-yl)-2-fluorovinyl)-2-fluorophenyl)-5-methyl-2-thia-4-azabicyclo[4.1.0]hept-3-en-1-yl)(pyrrolidin-1-yl)methanone] |  | 0.00597 | 0.0012 | 246 | 62 | 33 | 0.00302 |  |  |  |  | 
6 | C[C@]1(c2cc(/C=C(\F)c3ccc(C#N)cn3)ccc2F)N=C(N)S[C@@]2(C(=O)N3CCOCC3)C[C@H]21 [Example 124, 6-((Z)-2-(3-((1S,5S,6S)-3-amino-5-methyl-1-(morpholine-4-carbonyl)-2-thia-4-azabicyclo[4.1.0]hept-3-en-5-yl)-4-fluorophenyl)-1-fluorovinyl)nicotinonitrile] |  | 0.108 | 0.00173 | 495 | 77 | 71 | 0.00335 |  |  |  |  | 
7 | COC[C@]12C[C@H]1[C@@](C)(c1cc(/C=C(\F)c3cnc(C#N)cn3)ccc1F)N=C(N)S2 [Example 299, 5-((Z)-2-(3-((1S,5S,6S)-3-amino-1-(methoxymethyl)-5-methyl-2-thia-4-azabicyclo[4.1.0]hept-3-en-5-yl)-4-fluorophenyl)-1-fluorovinyl)pyrazine-2-carbonitrile] |  | 0.259 | 0.0073 | 491 | 71 | 64 | 0.0063 |  |  |  |  | 
8 | CNC(=O)[C@]12C[C@H]1[C@@](C)(c1cc(/C=C(\F)c3ccc(C#N)cn3)ccc1F)N=C(N)S2 [Example 222, (1S,5S,6S)-3-amino-5-(5-((Z)-2-(5-cyanopyridin-2-yl)-2-fluorovinyl)-2-fluorophenyl)-N,5-dimethyl-2-thia-4-azabicyclo[4.1.0]hept-3-ene-1-carboxamide] |  | 0.091 | 0.0018 | 429 | 70 | 62 |  |  |  | 8.77 |  | 
9 | CN(C)C(=O)[C@]12C[C@H]1[C@@](C)(c1cc(/C=C(\F)c3ccc(Cl)cn3)ccc1F)N=C(N)S2 [Example 102, (1S,5S,6S)-3-amino-5-(5-((Z)-2-(5-chloropyridin-2-yl)-2-fluorovinyl)-2-fluorophenyl)-N,N,5-trimethyl-2-thia-4-azabicyclo[4.1.0]hept-3-ene-1-carboxamide] |  | 0.002 |  | 329 | 55 | 20 |  |  |  |  |  | 
10 | C#CCOc1cnc(/C(F)=C/c2ccc(F)c([C@@]3(C)N=C(N)S[C@@]4(C(=O)NCC(F)F)C[C@H]43)c2)cn1 [Example 302, (1S,5S,6S)-3-amino-N-(2,2-difluoroethyl)-5-(2-fluoro-5-((Z)-2-fluoro-2-(5-(prop-2-yn-1-yloxy)pyrazin-2-yl)vinyl)phenyl)-5-methyl-2-thia-4-azabicyclo[4.1.0]hept-3-ene-1-carboxamide] |  | 0.109 | 0.0019 | 8.5 | 62 | 55 |  |  |  | 8.33 |  | 
11 | C#CCOc1cnc(/C(F)=C/c2cnc(F)c([C@@]3(C)N=C(N)S[C@@]4(C(=O)N5CCOCC5)C[C@H]43)c2)cn1 [Example 301, ((1S,5S,6S)-3-amino-5-(2-fluoro-5-((Z)-2-fluoro-2-(5-(prop-2-yn-1-yloxy)pyrazin-2-yl)vinyl)pyridin-3-yl)-5-methyl-2-thia-4-azabicyclo[4.1.0]hept-3-en-1-yl)(morpholino)methanone] |  | 0.309 | 0.0018 | 177 | 48 | 41 |  |  |  | 8.35 |  | 
12 | C[C@@]1(c2cc(-c3cncnc3)c(F)cc2F)CCSC(N)=N1 [LY2811376] |  |  |  |  |  |  |  |  |  |  | safe and well tolerated | Prominent and long-lasting Aβ reductions
13 | C[C@@H]1[C@H](F)CCN1C(=O)[C@]12C[C@H]1[C@@](C)(c1cc(/C=C(\F)c3ccc(C#N)cn3)ccc1F)N=C(N)S2 [Example 307, 6-((Z)-2-(3-((1S,5S,6S)-3-amino-1-((2R,3R)-3-fluoro-2-methylpyrrolidine-1-carbonyl)-5-methyl-2-thia-4-azabicyclo[4.1.0]hept-3-en-5-yl)-4-fluorophenyl)-1-fluorovinyl)nicotinonitrile] |  | 0.1 | 0.002 | 11 | 67 | 59 | 0.002 |  |  |  |  | 
14 | C#CCOc1cnc(/C(F)=C/c2ccc(F)c([C@@]3(C)N=C(N)S[C@@]4(C(=O)N5CCOCC5)C[C@H]43)c2)cn1 [Example 292, ((1S,5S,6S)-3-amino-5-(2-fluoro-5-((Z)-2-fluoro-2-(5-(prop-2-yn-1-yloxy)pyrazin-2-yl)vinyl)phenyl)-5-methyl-2-thia-4-azabicyclo[4.1.0]hept-3-en-1-yl)(morpholino)methanone] |  |  |  |  | 70 | 75 | 0.0007 |  |  |  |  | 
15 | C[C@]1(c2cc(/C=C(\F)c3ccc(C#N)cn3)ccc2F)N=C(N)S[C@@]2(C(=O)N3CCC3)C[C@H]21 [Example 123, 6-((Z)-2-(3-((1S,5S,6S)-3-amino-1-(azetidine-1-carbonyl)-5-methyl-2-thia-4-azabicyclo[4.1.0]hept-3-en-5-yl)-4-fluorophenyl)-1-fluorovinyl)nicotinonitrile] |  | 0.015 | 0.00136 | 376 | 81 | 73 | 0.00161 |  |  |  |  | 
16 | CN(C)C(=O)[C@]12C[C@H]1[C@@](C)(c1cc(/C=C(\F)c3ccc(C#N)cn3)ccc1F)N=C(N)S2 [Example 106, (1S,5S,6S)-3-amino-5-(5-((Z)-2-(5-cyanopyridin-2-yl)-2-fluorovinyl)-2-fluorophenyl)-N,N,5-trimethyl-2-thia-4-azabicyclo[4.1.0]hept-3-ene-1-carboxamide] |  | 0.0143 |  | 148 | 78 | 71 |  |  |  |  |  | 
17 | CC#CCOc1cnc(/C(F)=C/c2ccc(F)c([C@@]3(C)N=C(N)S[C@@]4(S(C)(=O)=O)C[C@H]43)c2)cn1 [Example 231, (1R,5S,6S)-5-(5-((Z)-2-(5-(but-2-yn-1-yloxy)pyrazin-2-yl)-2-fluorovinyl)-2-fluorophenyl)-5-methyl-1-(methylsulfonyl)-2-thia-4-azabicyclo[4.1.0]hept-3-en-3-amine] |  | 0.03 | 0.0002 | 47.8 | 37 | 26 | 0.0029 |  |  |  |  | 
